target: FP receptor (Homo sapiens (Human), UniProt P43088); experiment: In vitro test of inhibition of human FP receptor activity (PGF2α-induced calcium flux in FP-expressing CHEM1 cells); type: cell-based; details: PGF2α 2 nM, some mean values of multiple determinations
Summary of the method: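 FP antagonism in FP-expressing CHEM1 cells loaded with Fluo-8. Compound preincubated 10 min at 37° C, then receptor stimulated with 2 nM (final) PGF2α in calcium-free Tyrode with 2 mM CaCl2.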

Chain of FP receptor (P43088 whole entry): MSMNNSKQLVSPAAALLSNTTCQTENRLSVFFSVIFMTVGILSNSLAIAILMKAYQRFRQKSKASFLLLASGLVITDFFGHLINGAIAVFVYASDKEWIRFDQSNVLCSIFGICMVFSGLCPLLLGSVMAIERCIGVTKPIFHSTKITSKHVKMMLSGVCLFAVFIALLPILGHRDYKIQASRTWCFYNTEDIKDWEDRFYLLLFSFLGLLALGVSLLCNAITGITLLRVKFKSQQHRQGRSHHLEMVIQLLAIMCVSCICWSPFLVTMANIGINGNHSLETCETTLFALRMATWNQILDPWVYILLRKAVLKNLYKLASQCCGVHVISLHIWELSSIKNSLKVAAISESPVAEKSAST

| Compound | IC50 |
| --- | --- |
| Cc1c(N2CCC(C)(F)C2)nc2ccc(Br)cc2c1C(=O)NCC(CCC(=O)O)c1ccccc1Cl (centres unmarked) [Example 71, 5-[({6-Bromo-2-[3-fluoro-3-methylpyrrolidin-1-yl]-3-methylquinolin-4-yl}carbonyl)amino]-4-(2-chlorophenyl)pentanoic acid] | 110 nM |
| Cc1c(NC2CCC2)nc2ccc(Br)cc2c1C(=O)NCC(CCC(=O)O)c1ccccc1Cl (racemic) [Example 97, (+/−)-5-({[6-Bromo-2-(cyclobutylamino)-3-methylquinolin-4-yl]carbonyl}amino)-4-(2-chlorophenyl)pentanoic acid] | 530 nM |
| Cc1c(N2CCCC2)nc2ccc(Br)cc2c1C(=O)NCC(CCC(=O)O)c1c(F)cccc1C(F)(F)F (racemic) [Example 163, (+/−)-5-({[6-Bromo-3-methyl-2-(pyrrolidin-1-yl)quinolin-4-yl]carbonyl}amino)-4-[2-fluoro-6-(trifluoromethyl)phenyl]pentanoic acid] | 11 nM |
| CCC1CCCN(c2nc3ccc(Br)cc3c(C(=O)NCC(CCC(=O)O)c3cc(F)ccc3F)c2C)C1 (single isomer, unassigned; (+)) [Example 227, (+)-5-[({6-Bromo-2-[3-ethylpiperidin-1-yl]-3-methylquinolin-4-yl}carbonyl)amino]-4-(2,5-difluorophenyl)pentanoic acid] | 57 nM |
| Cc1c(N2CCCCC2)nc2ccc(Br)cc2c1C(=O)NCC(CCC(=O)O)c1c(F)cccc1C(F)(F)F (single isomer, unassigned; (+)) [Example 162, (+)-5-({[6-Bromo-3-methyl-2-(piperidin-1-yl)quinolin-4-yl]carbonyl}amino)-4-[2-fluoro-6-(trifluoromethyl)phenyl]pentanoic acid] | 42 nM |
| Cc1c(N2CCCCCC2)nc2ccc(Br)cc2c1C(=O)NCC(CCC(=O)O)c1c(F)ccc(F)c1Cl (single isomer, unassigned; (+)) [Example 219, (+)-5-({[2-(Azepan-1-yl)-6-bromo-3-methylquinolin-4-yl]carbonyl}amino)-4-(2-chloro-3,6-difluorophenyl)pentanoic acid] | 29 nM |

These reach a lower IC50. Values come first.

| IC50 | Compound |
| --- | --- |
| 4.4 nM | Cc1c(N2CCCC(F)C2)nc2ccc(Br)cc2c1C(=O)NCC(CCC(=O)O)c1ccccc1Cl (centres unmarked) [Example 78, 5-[({6-Bromo-2-[3-fluoropiperidin-1-yl]-3-methylquinolin-4-yl}carbonyl)amino]-4-(2-chlorophenyl)pentanoic acid] |
| 8.9 nM | Cc1ccccc1C(CCC(=O)O)CNC(=O)c1c(C)c(N2CCCC2)nc2ccc(Br)cc12 (single isomer, unassigned; (-)) [Example 234, (−)-5-({[6-Bromo-3-methyl-2-(pyrrolidin-1-yl)quinolin-4-yl]carbonyl}amino)-4-(2-methylphenyl)pentanoic acid] |
| 1.1 nM | Cc1c(N2CCCCCC2)nc2ccc(Br)cc2c1C(=O)NCC(CCC(=O)O)c1ccccc1OC(F)(F)F (single isomer, unassigned; (-)) [Example 136, (−)-5-({[2-(Azepan-1-yl)-6-bromo-3-methylquinolin-4-yl]carbonyl}amino)-4-[2-(trifluoromethoxy)phenyl]pentanoic acid] |
| 4.3 nM | COc1ccccc1C(CCC(=O)O)CNC(=O)c1c(C)c(N2CCCC2)nc2ccc(Br)cc12 (single isomer, unassigned; (+)) [Example 237, (+)-5-({[6-Bromo-3-methyl-2-(pyrrolidin-1-yl)quinolin-4-yl]carbonyl}amino)-4-(2-methoxyphenyl)pentanoic acid] |
| 3 nM | Cc1c(N2CCCC(F)C2)nc2ccc(Br)cc2c1C(=O)NCC(CCC(=O)O)c1ccccc1OC(F)(F)F (centres unmarked) [Example 138, 5-[({6-Bromo-2-[3-fluoropiperidin-1-yl]-3-methylquinolin-4-yl}carbonyl)amino]-4-[2-(trifluoromethoxy)phenyl]pentanoic acid] |

From US11149018B2, “Substituted N-arylethyl-2-aminoquinoline-4-carboxamides and use thereof” (Bayer Aktiengesellschaft, priority 2017, dated 2021)
